From the supplement of paper PMC4862054

Key:
Details in all cases: incubation time: 72 h
CAL-85-1 [1] = test: normalised viability (% of control), CellTiter-Blue; higher = more viable cells (about 100 = DMSO control)
Description: (§1)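 DSRT, CellTiter-Blue viability, 72 h incubation. Signal is normalised to DMSO and benzethonium chloride controls. Value is the normalised response at dose 7.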

DU-4475 [2] = test: as above
Description: as §1

HDQ-P1 [3] = test: as above
Description: as §1

MDA-MB-453 [4] = test: as above
Description: as §1

CAL-51 [5] = test: as above
Description: as §1

CAL-148 [6] = test: as above
Description: as §1

MCF-10A = test: normalised response (% of control), CellTiter-Glo; higher = more viable cells (100 = DMSO, 0 = benzethonium chloride kill control)
Outline: (§2)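 Breast cancer cell lines were exposed for 72 h in 384-well plates to compound at 5 concentrations, 10-fold apart, covering a 10,000-fold range fixed for each compound. Plates were read for CellTox Green fluorescence and CellTiter-Glo luminescence and normalised to 0.1 % DMSO (100) and a positive kill control (0). Each value is the normalised signal at one concentration of the series.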

MDA-MB-468 = test: as above
Outline: as §2

CAL-85-1 [7] = test: as above
Outline: as §2

CAL-120 = test: as above
Outline: as §2

HCC1143 = test: as above
Outline: as §2

DU-4475 [8] = test: as above
Outline: as §2

HDQ-P1 [9] = test: as above
Outline: as §2

Hs578T = test: as above
Outline: as §2

MDA-MB-231 = test: as above
Outline: as §2

HCC1937 = test: as above
Outline: as §2

HCC1599 = test: as above
Outline: as §2

MDA-MB-453 [10] = test: as above
Outline: as §2

CAL-51 [11] = test: as above
Outline: as §2

BT-474 = test: as above
Outline: as §2

BT-549 = test: as above
Outline: as §2

MFM-223 = test: as above
Outline: as §2

MDA-MB-436 = test: as above
Outline: as §2

CAL-148 [12] = test: as above
Outline: as §2

SK-BR-3 = test: as above
Outline: as §2

CAL-85-1 [13] = test: normalised viability (% of control), CellTiter-Blue; higher = more viable cells (about 100 = DMSO control); remark: listed apart in the source
Description: (§3)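 DSRT, CellTiter-Blue viability, 72 h incubation. Signal is normalised to DMSO and benzethonium chloride controls. Value is the normalised response at dose 6.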

DU-4475 [14] = test: as above; remark: listed apart in the source
Description: as §3

HDQ-P1 [15] = test: as above; remark: listed apart in the source
Description: as §3

MDA-MB-453 [16] = test: as above; remark: listed apart in the source
Description: as §3

CAL-51 [17] = test: as above; remark: listed apart in the source
Description: as §3

CAL-148 [18] = test: as above; remark: listed apart in the source
Description: as §3

## CCCC(CCC)C(=O)O [Valproic acid] (1000 nM)
CAL-85-1 [1]
  normalised viability: 90.6%
DU-4475 [2]
  normalised viability: 94.8%
HDQ-P1 [3]
  normalised viability: 112%
MDA-MB-453 [4]
  normalised viability: 116%
CAL-51 [5]
  normalised viability: 89.1%
CAL-148 [6]
  normalised viability: 88.8%
MCF-10A
  normalised response: 98.7%
MDA-MB-468
  normalised response: 93.8%
CAL-85-1 [7]
  normalised response: 93.9%
CAL-120
  normalised response: 99.9%
HCC1143
  normalised response: 103%
DU-4475 [8]
  normalised response: 94.9%
HDQ-P1 [9]
  normalised response: 103%
Hs578T
  normalised response: 103%
MDA-MB-231
  normalised response: 101%
HCC1937
  normalised response: 99.5%
HCC1599
  normalised response: 31.2%
MDA-MB-453 [10]
  normalised response: 111%
CAL-51 [11]
  normalised response: 70.3%
BT-474
  normalised response: 103%
BT-549
  normalised response: 99.8%
MFM-223
  normalised response: 94.5%
MDA-MB-436
  normalised response: 95.6%
CAL-148 [12]
  normalised response: 96.2%
SK-BR-3
  normalised response: 92.3%

## C#Cc1cccc(Nc2ncnc3cc(OC)c(OCCCCCCC(=O)NO)cc23)c1 [CUDC-101] (300 nM)
CAL-85-1 [13]
  normalised viability: 64.1%
DU-4475 [14]
  normalised viability: 75.1%
HDQ-P1 [15]
  normalised viability: 38.8%
MDA-MB-453 [16]
  normalised viability: 46%
CAL-51 [17]
  normalised viability: 105%
CAL-148 [18]
  normalised viability: 81.9%

## COc1cc(Nc2ncc(F)c(Nc3ccc4c(n3)NC(=O)C(C)(C)O4)n2)cc(OC)c1OC [R406] (1000 nM)
CAL-85-1 [1]
  normalised viability: 84.7%
DU-4475 [2]
  normalised viability: 105%
HDQ-P1 [3]
  normalised viability: 103%
MDA-MB-453 [4]
  normalised viability: 96.4%
CAL-51 [5]
  normalised viability: 112%
CAL-148 [6]
  normalised viability: 97.2%

## CS(=O)(=O)OCCCCOS(C)(=O)=O [Busulfan] (3000 nM)
CAL-85-1 [13]
  normalised viability: 106%
DU-4475 [14]
  normalised viability: 76%
HDQ-P1 [15]
  normalised viability: 83%
MDA-MB-453 [16]
  normalised viability: 99.9%
CAL-51 [17]
  normalised viability: 92.8%
CAL-148 [18]
  normalised viability: 114%

## CC[C@@]1(O)C(=O)OCc2c1cc1n(c2=O)Cc2cc3ccccc3nc2-1 [Camptothecin] (150 nM)
CAL-85-1 [13]
  normalised viability: 61%
DU-4475 [14]
  normalised viability: 13.9%
HDQ-P1 [15]
  normalised viability: 48.3%
MDA-MB-453 [16]
  normalised viability: 50.7%
CAL-51 [17]
  normalised viability: 12.7%
CAL-148 [18]
  normalised viability: 12.8%

## CCS(=O)(=O)c1cccc(-c2cc(C(=O)NC3CCN(C)CC3)c(C)c3[nH]c4ncc(C)cc4c23)c1 [TAK-901] (30 nM)
CAL-85-1 [13]
  normalised viability: 79.4%
DU-4475 [14]
  normalised viability: 90.6%
HDQ-P1 [15]
  normalised viability: 96.5%
MDA-MB-453 [16]
  normalised viability: 55.5%
CAL-51 [17]
  normalised viability: 78.1%
CAL-148 [18]
  normalised viability: 42.2%

## CC[C@@]1(O)C(=O)OCc2c1cc1n(c2=O)Cc2cc3ccccc3nc2-1 [Camptothecin] (500 nM)
CAL-85-1 [1]
  normalised viability: 40%
DU-4475 [2]
  normalised viability: 10.7%
HDQ-P1 [3]
  normalised viability: 50.3%
MDA-MB-453 [4]
  normalised viability: 23.7%
CAL-51 [5]
  normalised viability: 5.8%
CAL-148 [6]
  normalised viability: 8%

## C[C@@]1(C(=O)Nc2ccc(F)nc2)CCCN1c1nc(Nc2cc(C3CC3)n[nH]2)c2cccn2n1 (300 nM)
CAL-85-1 [13]
  normalised viability: 65.7%
DU-4475 [14]
  normalised viability: 77.7%
HDQ-P1 [15]
  normalised viability: 50.3%
MDA-MB-453 [16]
  normalised viability: 84.6%
CAL-51 [17]
  normalised viability: 88.3%
CAL-148 [18]
  normalised viability: 95.7%

## COC(=O)C[C@](O)(CCCC(C)(C)O)C(=O)O[C@@H]1C(OC)=C[C@]23CCCN2CCc2cc4c(cc2[C@H]13)OCO4 [Omacetaxine mepesuccinate] (300 nM)
CAL-85-1 [13]
  normalised viability: 4.19%
DU-4475 [14]
  normalised viability: 9.29%
HDQ-P1 [15]
  normalised viability: 10.2%
MDA-MB-453 [16]
  normalised viability: 20.1%
CAL-51 [17]
  normalised viability: 7.35%
CAL-148 [18]
  normalised viability: 13.5%

## C[C@@H]1C=C2C(=O)O[C@@H]3CC[C@H](C1)[C@]23O [Galiellalactone] (1500 nM)
CAL-85-1 [13]
  normalised viability: 100%
DU-4475 [14]
  normalised viability: 98.1%
HDQ-P1 [15]
  normalised viability: 65.4%
MDA-MB-453 [16]
  normalised viability: 103%
CAL-51 [17]
  normalised viability: 106%
CAL-148 [18]
  normalised viability: 138%

## COc1ccc(C2=N[C@@H](c3ccc(Cl)cc3)[C@@H](c3ccc(Cl)cc3)N2C(=O)N2CCNC(=O)C2)c(OC(C)C)c1 [Nutlin-3] (300 nM)
CAL-85-1 [13]
  normalised viability: 89.9%
DU-4475 [14]
  normalised viability: 84.8%
HDQ-P1 [15]
  normalised viability: 66.2%
MDA-MB-453 [16]
  normalised viability: 91.2%
CAL-51 [17]
  normalised viability: 99%
CAL-148 [18]
  normalised viability: 96.3%
